Measurements published in patent publication US9532990B2 (Zhejiang DTRM Biopharma Co. Ltd., priority 2014, dated 2017).

Experiment: Pharmacokinetic study in male SD rats
Assay type: in vivo
Conditions: rat, plasma
Protocol: A pharmacokinetic study in male SD rats: Male SD rats for pharmacokinetic study within 24 hours were divided into two groups: intravenous administration and oral administration. Each group has three animals. For group of intravenous administration, blood samples were collected at pre-dose, 0.0833, 0.167, 0.5, 1, 2, 4, 8, 24 h post-dose; for group of oral administration, blood samples were collected at pre-dose, 0.167, 0.5, 1, 2, 4, 8, 24 h post-dose. After blood collection, HPLC-MS/MS was applied to determine plasma concentrations of the compound.

- AUC(0-inf) (IV, 2 mg/kg, mean): 1740 ng·h/mL
- AUC(0-t) (IV, 2 mg/kg, mean): 1740 ng·h/mL
- C0 (IV, 2 mg/kg, mean): 1390 ng/mL
- clearance (IV, 2 mg/kg, mean): 20.2 mL/min/kg
- half-life (IV, 2 mg/kg, mean): 0.787 h
- Vd (IV, 2 mg/kg, mean, read-out: Vdss): 1.61 L/kg
- bioavailability (PO, 10 mg/kg): 37.1%
- AUC(0-inf) (PO, 10 mg/kg, mean): 3260 ng·h/mL
- AUC(0-t) (PO, 10 mg/kg, mean): 3230 ng·h/mL
- Cmax (PO, 10 mg/kg, mean): 641 ng/mL
- Tmax (PO, 10 mg/kg, mean): 1.33 h
- half-life (PO, 10 mg/kg, mean): 1.71 h
Compound: C=CC(=O)N1CC[C@@H](n2nc(-c3ccc(Oc4c(F)c(F)cc(F)c4F)cc3F)c3c(N)ncnc32)C1 [Compound 45, 1-((R)-3-(4-amino-3-(2-fluoro-4-(2,3,5,6-tetrafluorophenoxy)phenyl)-1H-pyrazolo[3,4-d]pyrimidin-1-yl)pyrrolidin-1-yl)prop-2-en-1-one]
